# Test results taken from PubChem BioAssay (NCI).
#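 The compound was tested at five concentrations on cells cultured in 96-well plates, with a 48-hour exposure period. GI50 = concentration required for 50% inhibition of growth. TGI: total growth inhibition.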
# Columns and labels:
# Test in all cases: NCI anticancer screen, dose series, 48 h
# [1] = system: HCC-2998 colon
# [2] = system: SR leukemia
# [3] = system: SNB-75 CNS
# [4] = system: LOX IMVI melanoma
# [5] = system: SF-268 CNS
# [6] = system: HCT-15 colon
# [7] = system: NCI-H522 lung
# [8] = system: COLO 205 colon
# [9] = system: OVCAR-4 ovarian
# [10] = system: OVCAR-8 ovarian
Compound,GI50 [1],TGI [1],GI50 [2],TGI [2],GI50 [3],TGI [3],GI50 [4],TGI [4],GI50 [5],TGI [5],GI50 [6],TGI [6],GI50 [7],TGI [7],GI50 [8],TGI [8],GI50 [9],TGI [9],GI50 [10],TGI [10]
Cc1ccc(CNc2c3ccccc3nc3cc(NC(=O)CCN4CCCC4)ccc23)cc1,0.573 µM,2.01 µM,0.301 µM,1.82 µM,1.06 µM,2.26 µM,0.515 µM,1.76 µM,0.819 µM,2.31 µM,1.29 µM,2.63 µM,0.509 µM,1.95 µM,0.408 µM,1.62 µM,0.569 µM,2.02 µM,–,–
CCCOC(=O)N1CCN(/[N+]([O-])=N/Oc2ccc([N+](=O)[O-])cc2[N+](=O)[O-])CC1,–,–,0.373 µM,> 100 µM,18.2 µM,36.1 µM,0.32 µM,1.08 µM,3.19 µM,11.1 µM,2.2 µM,5.65 µM,3.16 µM,15.7 µM,2.59 µM,6.21 µM,–,–,9.35 µM,72.8 µM
COc1ccc(C(C#N)Cc2cc(OC)c(OC)c(OC)c2)cc1 (stereo not given),–,–,–,–,–,–,–,> 100 µM,–,> 100 µM,–,> 100 µM,–,71.9 µM,–,49.3 µM,–,> 100 µM,–,> 100 µM
C[C@]12CCC3[C@@H](CC[C@@H]4c5nonc5CC[C@]34C)C1C/C(=N/O)C2=O (stereo not given in full),–,–,–,–,–,2.98 µM,–,> 100 µM,–,> 100 µM,–,> 100 µM,–,> 100 µM,–,> 100 µM,–,> 100 µM,–,> 100 µM
C/C(CC(=O)Nc1ccc(Cl)cc1)=N\NC(N)=S,–,75.7 µM,–,–,–,> 100 µM,–,> 100 µM,–,> 100 µM,–,–,–,> 100 µM,–,> 100 µM,–,–,–,> 100 µM
CN(/N=C/c1cccc2cccnc12)c1ccccc1,–,> 100 µM,–,–,–,> 100 µM,–,> 100 µM,–,> 100 µM,–,> 100 µM,–,> 100 µM,–,> 100 µM,–,> 100 µM,–,> 100 µM
COC(=O)c1cc(Cl)ccc1NC(=O)c1ccc([N+](=O)[O-])cc1,–,> 100 µM,–,–,–,20.7 µM,–,–,–,–,–,> 100 µM,–,–,–,–,–,12.3 µM,–,63.9 µM
CN1c2ccccc2N(C)C23N(C)c4ccccc4N(C)C12N(C)c1ccccc1N3C (stereo not given),–,> 100 µM,–,–,–,> 100 µM,–,> 100 µM,–,> 100 µM,–,> 100 µM,–,> 100 µM,–,> 100 µM,–,–,–,> 100 µM
CN1CC[C@@H](c2c(O)cc(O)c3c(=O)cc(-c4ccccc4Cl)oc23)[C@@H]1CO,0.36 µM,3.67 µM,0.107 µM,0.573 µM,0.224 µM,0.622 µM,–,–,0.305 µM,1.38 µM,0.351 µM,> 10 µM,0.357 µM,2.76 µM,0.262 µM,0.785 µM,0.709 µM,> 9.29 µM,0.321 µM,> 10 µM
O=C(NN1C(=O)CSC12CCCC2)c1[nH]c2ccc(Br)cc2c1-c1ccccc1,44.6 µM,> 100 µM,–,–,46.1 µM,> 100 µM,45.5 µM,> 100 µM,52.1 µM,> 100 µM,43.2 µM,> 100 µM,30.4 µM,> 100 µM,53.4 µM,> 100 µM,24.7 µM,> 100 µM,41 µM,> 100 µM
O=c1c2ccccc2nc(-c2ccccc2)n1NC1OC(CO)C(O)C(O)C1O (stereo not given),–,> 100 µM,–,–,–,> 100 µM,–,–,–,> 100 µM,–,> 100 µM,–,> 100 µM,–,> 100 µM,–,> 100 µM,–,> 100 µM
COc1cc(C2C(Cl)C(=O)N2NC(=O)c2ccc(N)cc2)ccc1O (stereo not given),–,38 µM,–,–,–,> 100 µM,–,32.1 µM,–,–,–,> 100 µM,–,35 µM,–,36.9 µM,–,> 100 µM,–,47.4 µM
O=C(Nc1ccc(Cl)c(Cl)c1)O/N=C\c1c(Cl)ccc([N+](=O)[O-])c1Cl,–,–,0.878 µM,5.04 µM,2.12 µM,9.5 µM,1.24 µM,2.76 µM,2.81 µM,9.63 µM,1.2 µM,3.48 µM,1.34 µM,2.88 µM,2.4 µM,4.81 µM,1.74 µM,3.14 µM,2.62 µM,8.47 µM
COc1cc(C(=O)NC2CCN(C)CC2)c(F)cc1Nc1ncc2c(n1)N(C1CCCC1)CC(F)(F)C(=O)N2C,0.0293 µM,12.3 µM,< 0.01 µM,–,–,–,< 0.0186 µM,4.96 µM,< 0.025 µM,12.1 µM,< 0.0213 µM,14 µM,< 0.01 µM,< 0.0208 µM,< 0.01 µM,0.177 µM,0.396 µM,14.1 µM,0.0338 µM,18.7 µM
COc1ccc2ccccc2c1C1OC(=O)c2ccccc21 (stereo not given),–,> 100 µM,–,–,–,–,–,> 100 µM,–,> 100 µM,–,> 100 µM,–,> 100 µM,–,> 100 µM,–,> 100 µM,–,> 100 µM
CCOC(=O)C(=Cc1cccnc1C)C(=O)OCC,–,–,–,26.2 µM,–,11.8 µM,–,14.2 µM,–,31.3 µM,–,19.4 µM,–,11.7 µM,–,18.4 µM,–,27.4 µM,–,16.9 µM
Cc1ccccc1NC(=O)C(=O)CC(=O)c1c(C)n([O-])c2ccccc2[n+]1=O,–,> 100 µM,–,0.0875 µM,–,> 100 µM,–,–,–,> 100 µM,–,> 100 µM,–,–,–,> 100 µM,–,> 100 µM,–,> 100 µM
COc1ccc(/C=N/N=C(\N)NO)c(OC)c1,–,43.7 µM,–,–,–,–,–,> 100 µM,–,> 100 µM,–,> 100 µM,–,–,–,> 100 µM,–,> 100 µM,–,> 100 µM
Clc1nc(Cl)c2ncn(C/C=C/COc3cccc(OC/C=C/Cn4cnc5c(Cl)nc(Cl)nc54)c3)c2n1,42.1 µM,> 100 µM,–,–,57.1 µM,> 100 µM,25.9 µM,> 100 µM,> 100 µM,> 100 µM,57.7 µM,> 100 µM,> 100 µM,> 100 µM,> 100 µM,> 100 µM,36.3 µM,> 100 µM,> 100 µM,> 100 µM
